Consider ten compounds from patent publication US20230382949A1 (HEPTARES THERAPEUTICS LIMITED, priority 2020, published 2023).

Assay [1] addresses T1, human Apelin receptor (Homo sapiens, UniProt P35414).
T1 sequence (P35414 1-380): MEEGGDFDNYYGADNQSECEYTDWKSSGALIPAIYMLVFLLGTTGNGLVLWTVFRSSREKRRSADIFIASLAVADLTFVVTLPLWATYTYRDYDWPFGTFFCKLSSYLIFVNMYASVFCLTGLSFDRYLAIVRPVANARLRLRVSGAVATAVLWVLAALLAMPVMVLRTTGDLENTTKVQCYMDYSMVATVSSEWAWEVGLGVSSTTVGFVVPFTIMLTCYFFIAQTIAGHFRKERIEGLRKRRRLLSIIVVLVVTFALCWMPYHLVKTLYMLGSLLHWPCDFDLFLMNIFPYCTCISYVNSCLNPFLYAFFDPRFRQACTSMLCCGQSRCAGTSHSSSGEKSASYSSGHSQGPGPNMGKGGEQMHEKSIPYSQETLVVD
The experiment in a line: cAMP accumulation assay (HTRF), functional agonism of human Apelin receptors. As to conditions: for Emax: CHO; for pEC50: pEC50, Human Apelin agonist cAMP assay. It is filed as cell-based. The text has this: cAMP functional assay. cAMP production was quantified using the Homogeneous Time-Resolved Fluorescence (HTRF) cAMP dynamic-2 assay (Cisbio, France).

For assay [2], the target named is T2, human Apelin receptor (Homo sapiens, UniProt P35414).
T2 construct: host or cells: CHO-K1 cells
Briefly: β-arrestin accumulation assay, functional agonism of human Apelin receptors. Format: cell-based. An outline of the steps:
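After 16 h at 37° C., cells were exposed to increasing agonist concentrations in serum-free medium for 90 min at 37° C. Detection reagent added for 60 min in the dark; receptor activation read by fluorescence and EC50 derived from concentration-response curves.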
T2 sequence (P32121 whole entry partner, one chain of several): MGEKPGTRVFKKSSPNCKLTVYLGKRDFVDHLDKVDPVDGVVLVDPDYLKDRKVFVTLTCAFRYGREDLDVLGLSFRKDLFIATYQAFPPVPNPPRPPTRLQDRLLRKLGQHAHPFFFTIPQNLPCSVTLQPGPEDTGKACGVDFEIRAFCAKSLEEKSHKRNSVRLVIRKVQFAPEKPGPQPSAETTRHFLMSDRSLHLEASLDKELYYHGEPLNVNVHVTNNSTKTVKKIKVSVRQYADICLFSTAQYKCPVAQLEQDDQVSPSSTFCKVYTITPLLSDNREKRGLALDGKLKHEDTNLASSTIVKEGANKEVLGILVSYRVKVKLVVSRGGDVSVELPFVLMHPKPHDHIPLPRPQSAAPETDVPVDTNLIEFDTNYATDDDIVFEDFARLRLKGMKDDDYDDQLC

The mark [3] stands for this setting: Human Apelin agonist cAMP assay, CHO cells stably expressing the human Apelin receptor, 3 uM forskolin.
Setting [4] is: CHO cells stably expressing the human Apelin receptor, 3 uM forskolin.

pEC50: −log10 of the molar value. Read-outs that look alike come from different tables or passages of the source. Starred links: 1 amine or outer side, 2 acyl side, 3 side chain; linkers in the order of their positions; H or OH if unused. Non-standard residues stand in square brackets, D forms with d. Residues, ends and D or L forms follow the SMILES beside them. *: point of attachment. Ala(piperidin-4-yl) = O=C([C@H](CC1CCN([*:3])CC1)N[*:1])[*:2]; Malonyl(2,2-Me2,histaminyl) = CC(C)(C(=O)NCCc1cnc[nH]1)C(=O)*; dBip = N[C@H](Cc1ccc(-c2ccccc2)cc1)C(=O)O; Oic = O=C(O)[C@@H]1C[C@@H]2CCCC[C@@H]2N1; Phe(4-Br) = N[C@@H](Cc1ccc(Br)cc1)C(=O)O; Phe(4-Cl) = N[C@@H](Cc1ccc(Cl)cc1)C(=O)O; 2Nal = N[C@@H](Cc1ccc2ccccc2c1)C(=O)O; X1 = CC(C)(C(=O)NCCc1ccccc1)C(=O)*; X3 = CC(C)(C(=O)NCCc1ccccn1)C(=O)*; Ser(ΨH,HPro) = O=C(O)[C@@H]1COCN1; hArg = N=C(N)NCCCC[C@H](N)C(=O)O; dCha = N[C@H](CC1CCCCC1)C(=O)O; Aib = CC(C)(N)C(=O)O; Bn = c1ccc(C*)cc1

With `CC(C)C[C@H](NC(=O)[C@@H](CCCNC(=N)N)NC(=O)[C@@H]1CCCN1C(=O)[C@H](CCCCNC(=N)N)NC(=O)[C@H](CCC(N)=O)NC(=O)C(C)(C)C(=O)NCCc1cnc[nH]1)C(=O)N[C@H](C)C(=O)N[C@@H](Cc1c[nH]cn1)C(=O)N[C@@H](CC1CCNCC1)C(=O)NCC(=O)N1[C@H](C(=O)N[C@@H](Cc2ccc(Br)cc2)C(=O)N2CCC[C@H]2C(=O)N[C@H](Cc2ccc(-c3ccccc3)cc2)C(=O)O)C[C@@H]2CCCC[C@@H]21` [Example 38] ({Malonyl(2,2-Me2,histaminyl)}-Q[hArg]P[dR]L[dA]H[Ala(piperidin-4-yl)]G[Oic][Phe(4-Br)]P[dBip]-OH), the Emax in assay [1] (setting [3]) worked out at 27.9%. The pEC50 in assay [1] (setting [4]) was 7.50; in assay [2], under 5.00.
Take `CC(C)C[C@H](NC(=O)[C@@H](CCCNC(=N)N)NC(=O)[C@@H]1CCCN1C(=O)[C@H](CCCCNC(=N)N)NC(=O)[C@H](CCC(N)=O)NC(=O)[C@@H](CCCNC(=N)N)NC(=O)C(C)(C)C(=O)NCCc1c[nH]cn1)C(=O)NC(C)(C)C(=O)N[C@@H](Cc1c[nH]cn1)C(=O)N[C@@H](CC1CCNCC1)C(=O)NCC(=O)N1[C@H](C(=O)N[C@@H](Cc2ccc3ccccc3c2)C(=O)N2CCC[C@H]2C(=O)N[C@H](Cc2ccc(-c3ccccc3)cc2)C(=O)O)C[C@@H]2CCCC[C@@H]21` [Example 20] ({Malonyl(2,2-Me2,histaminyl)}-[dR]Q[hArg]P[dR]L[Aib]H[Ala(piperidin-4-yl)]G[Oic][2Nal]P[dBip]-OH): the maximal response (Emax) in assay [1] (setting [3]) was determined as 84.1%. Further, the figures for the pEC50 in assay [1] (setting [4]) and in assay [2] were 7.90 and under 5.00, respectively.
As to `CC(C)C[C@H](NC(=O)[C@@H](CCCNC(=N)N)NC(=O)[C@@H]1CCCN1C(=O)[C@H](CCCCNC(=N)N)NC(=O)[C@H](CCC(N)=O)NC(=O)C(C)(C)C(=O)NCCc1ccccn1)C(=O)NC(C)(C)C(=O)N[C@@H](Cc1c[nH]cn1)C(=O)N[C@@H](CC1CCNCC1)C(=O)NCC(=O)N1[C@H](C(=O)N[C@@H](Cc2ccc(Br)cc2)C(=O)N2CCC[C@H]2C(=O)N[C@H](Cc2ccc(-c3ccccc3)cc2)C(=O)O)C[C@@H]2CCCC[C@@H]21` [Example 46] (X3-Q[hArg]P[dR]L[Aib]H[Ala(piperidin-4-yl)]G[Oic][Phe(4-Br)]P[dBip]-OH), the Emax in assay [1] (setting [3]) came to 55%. The negative logarithm of the EC50 (pEC50) in assay [1] (setting [4]) is 7.40; in assay [2], under 5.00.
`CC(C)C[C@H](NC(=O)[C@@H](CCCNC(=N)N)NC(=O)[C@@H]1C[C@@H]2CCCC[C@@H]2N1C(=O)[C@H](CCCCNC(=N)N)NC(=O)[C@H](CCC(N)=O)NC(=O)[C@@H](CCCNC(=N)N)NC(=O)C(C)(C)C(=O)NCCc1c[nH]cn1)C(=O)NC(C)(C)C(=O)N[C@@H](Cc1c[nH]cn1)C(=O)N[C@@H](CC1CCNCC1)C(=O)NCC(=O)N1[C@H](C(=O)N[C@@H](Cc2ccc(Br)cc2)C(=O)N2CCC[C@H]2C(=O)N[C@H](Cc2ccc(-c3ccccc3)cc2)C(=O)O)C[C@@H]2CCCC[C@@H]21` [Example 10] ({Malonyl(2,2-Me2,histaminyl)}-[dR]Q[hArg][Oic][dR]L[Aib]H[Ala(piperidin-4-yl)]G[Oic][Phe(4-Br)]P[dBip]-OH) showed a maximum response (Emax) in assay [1] (setting [3]) of 52.5%. The values for the negative-log EC50 (pEC50) in assay [1] (setting [4]) and in assay [2] were 7.70 and under 5.00, respectively.
As to `CC(C)C[C@H](NC(=O)[C@@H](CCCNC(=N)N)NC(=O)[C@@H]1CCCN1C(=O)[C@H](CCCCNC(=N)N)NC(=O)[C@H](CCC(N)=O)NC(=O)[C@@H](CCCNC(=N)N)NC(=O)C(C)(C)C(=O)NCCc1c[nH]cn1)C(=O)NC(C)(C)C(=O)N[C@@H](Cc1c[nH]cn1)C(=O)N[C@@H](CC1CCNCC1)C(=O)NCC(=O)N1[C@H](C(=O)N[C@@H](Cc2ccc(Br)cc2)C(=O)N2CCC[C@H]2C(=O)N[C@H](CC2CCCCC2)C(=O)O)C[C@@H]2CCCC[C@@H]21` [Example 24] ({Malonyl(2,2-Me2,histaminyl)}-[dR]Q[hArg]P[dR]L[Aib]H[Ala(piperidin-4-yl)]G[Oic][Phe(4-Br)]P[dCha]-OH), the maximal response (Emax) in assay [1] (read-out: Emax) is 87.9%. Besides, in assay [1] (read-out: pEC50 (converted)), the EC50 was 31.6 nM. The pEC50 in assay [2] is under 5.00.
In the case of `CC(C)C[C@H](NC(=O)[C@H](CCCNC(=N)N)NC(=O)[C@@H]1CCCN1C(=O)[C@@H](CCCNC(=N)N)NC(=O)[C@H](CCC(N)=O)NC(=O)C(C)(C)C(=O)NCCc1cnc[nH]1)C(=O)NC(C)(C)C(=O)N[C@@H](Cc1c[nH]cn1)C(=O)N[C@@H](CC1CCNCC1)C(=O)NCC(=O)N1[C@H](C(=O)N[C@@H](Cc2ccc(Br)cc2)C(=O)N2CCC[C@H]2C(=O)N[C@H](Cc2ccc(OCc3ccccc3)cc2)C(=O)O)C[C@@H]2CCCC[C@@H]21` [Example 42] ({Malonyl(2,2-Me2,histaminyl)}-Q[dR]PRL[Aib]H[Ala(piperidin-4-yl)]G[Oic][Phe(4-Br)]P[dY](Bn)-OH), in assay [1] (setting [3]), the maximum response (Emax) is 107%. The negative-log EC50 (pEC50) in assay [1] (setting [4]) was 8.10; in assay [2], 7.10.
For the compound `CC(C)C[C@H](NC(=O)[C@@H](CCCNC(=N)N)NC(=O)[C@@H]1COCN1C(=O)[C@H](CCCCNC(=N)N)NC(=O)[C@H](CCC(N)=O)NC(=O)[C@@H](CCCNC(=N)N)NC(=O)C(C)(C)C(=O)NCCc1c[nH]cn1)C(=O)NC(C)(C)C(=O)N[C@@H](Cc1c[nH]cn1)C(=O)N[C@@H](CC1CCNCC1)C(=O)NCC(=O)N1[C@H](C(=O)N[C@@H](Cc2ccc(Br)cc2)C(=O)N2CCC[C@H]2C(=O)N[C@H](Cc2ccc(-c3ccccc3)cc2)C(=O)O)C[C@@H]2CCCC[C@@H]21` [Example 11] ({Malonyl(2,2-Me2,histaminyl)}-[dR]Q[hArg][Ser(ΨH,HPro)][dR]L[Aib]H[Ala(piperidin-4-yl)]G[Oic][Phe(4-Br)]P[dBip]-OH), the Emax in assay [1] (setting [3]) worked out at 90.6%. Moreover, the pEC50 in assay [1] (setting [4]) was 7.90; in assay [2], under 5.00.
On to `CC(C)C[C@H](NC(=O)[C@@H](CCCNC(=N)N)NC(=O)[C@@H]1CCCN1C(=O)[C@H](CCCCNC(=N)N)NC(=O)[C@H](CCC(N)=O)NC(=O)C(C)(C)C(=O)NCCc1cnc[nH]1)C(=O)NC(C)(C)C(=O)N[C@@H](Cc1c[nH]cn1)C(=O)N[C@@H](CC1CCNCC1)C(=O)NCC(=O)N1[C@H](C(=O)N[C@@H](Cc2ccc(Br)cc2)C(=O)N2CCC[C@H]2C(=O)N[C@H](Cc2ccc(-c3ccccc3)cc2)C(=O)O)C[C@@H]2CCCC[C@@H]21` [Example 39] ({Malonyl(2,2-Me2,histaminyl)}-Q[hArg]P[dR]L[Aib]H[Ala(piperidin-4-yl)]G[Oic][Phe(4-Br)]P[dBip]-OH), for which the Emax in assay [1] (setting [3]) worked out at 62.1%. The negative logarithm of the EC50 (pEC50) in assay [1] (setting [4]) was 7.50; in assay [2], under 5.00.
In assay [1] (setting [3]), `CC(C)C[C@H](NC(=O)[C@@H](CCCNC(=N)N)NC(=O)[C@@H]1CCCN1C(=O)[C@H](CCCCNC(=N)N)NC(=O)[C@H](CCC(N)=O)NC(=O)[C@@H](CCCNC(=N)N)NC(=O)C(C)(C)C(=O)NCCc1ccccc1)C(=O)NC(C)(C)C(=O)N[C@@H](Cc1c[nH]cn1)C(=O)N[C@@H](CC1CCNCC1)C(=O)NCC(=O)N1[C@H](C(=O)N[C@@H](Cc2ccc(Br)cc2)C(=O)N2CCC[C@H]2C(=O)N[C@H](Cc2ccc(-c3ccccc3)cc2)C(=O)O)C[C@@H]2CCCC[C@@H]21` [Example 5] (X1-[dR]Q[hArg]P[dR]L[Aib]H[Ala(piperidin-4-yl)]G[Oic][Phe(4-Br)]P[dBip]-OH) showed a maximal effect (Emax) of 47.2%. The results for the pEC50 in assay [1] (setting [4]) and in assay [2] were 7.80 and under 5.00, respectively.
For the compound `CC(C)C[C@H](NC(=O)[C@@H](CCCNC(=N)N)NC(=O)[C@@H]1CCCN1C(=O)[C@H](CCCCNC(=N)N)NC(=O)[C@H](CCC(N)=O)NC(=O)[C@@H](CCCNC(=N)N)NC(=O)C(C)(C)C(=O)NCCc1c[nH]cn1)C(=O)NC(C)(C)C(=O)N[C@@H](Cc1c[nH]cn1)C(=O)N[C@@H](CC1CCNCC1)C(=O)NCC(=O)N1[C@H](C(=O)N[C@@H](Cc2ccc(Cl)cc2)C(=O)N2CCC[C@H]2C(=O)N[C@H](Cc2ccc(-c3ccccc3)cc2)C(=O)O)C[C@@H]2CCCC[C@@H]21` [Example 17] ({Malonyl(2,2-Me2,histaminyl)}-[dR]Q[hArg]P[dR]L[Aib]H[Ala(piperidin-4-yl)]G[Oic][Phe(4-Cl)]P[dBip]-OH), in assay [1] (setting [3]), the Emax amounted to 78.8%. Besides, the values for the negative logarithm of the EC50 (pEC50) in assay [1] (setting [4]) and in assay [2] were 7.60 and under 5.00, respectively.
